Results on 24 compounds are retold here after ChEMBL document CHEMBL1649339, “Abietane and C20-norabietane diterpenes from the stem bark of Fraxinus sieboldiana and their biological activities” (J Nat Prod, 2010).

The test system of test [1] is HCT-8. In words: Cytotoxicity against human HCT8 cells after 24 hrs by MTT assay. Type of test: functional, cell-based. The note with it: HCT-8, 24 h. On the technique in general: Tetrazolium dyes change colour on reduction, which living cells bring about.
Test [2] relates to A549. Put plainly: Cytotoxicity against human A549 cells after 24 hrs by MTT assay. To be noted: A549, 24 h. Format: functional, cell-based.
In test [3] the test system is Bel-7402. In words: Cytotoxicity against human Bel7402 cells after 24 hrs by MTT assay. Format: functional, cell-based. To be noted: Bel-7402, 24 h.
Test [4] concerns BGC-823. In words: Cytotoxicity against human BGC823 cells after 24 hrs by MTT assay. Format: functional, cell-based. To be noted: BGC-823, 24 h.
Test [5] deals with A2780. In words: cells. To be noted: Homo sapiens, A2780, 24 h.
Description: Cytotoxicity against human A2780 cells after 24 hrs by MTT assay
Test [6] in a line: Antiinflammatory activity in PAF-induced rat Polymorphonuclear leukocyte assessed as inhibition of beta-glucuronidase release at 10^-5 M. Format: functional.
Test [7] concerns Influenza A virus. In words: microbe, parasite or virus in culture. Type of test: functional, organism-based. The note with it: HEK-293T.

SMILES strings stand for the structures. A value given as a limit tells only on which side of the number the result lay.

For `CCO[C@@H]1OC[C@@]2(C)CCC[C@@]13c1cc(O)c(C(C)C)cc1C(=O)C[C@@H]23`, the IC50 in test [1], in test [2], in test [3], in test [4] and in test [5] was over 10 µM each time.

`CC(C)c1cc2c(cc1O)[C@@]1(O)CCCC(C)(C)[C@@H]1CC2=O`: the IC50 in test [1], in test [2], in test [3], in test [4] and in test [5] was over 10 µM in each case.

As for `CC(C)C1=C[C@]2(O)CC[C@H]3[C@]4(C)CCC[C@]3(C(=O)OC4)C2=CC1=O`, the IC50 in test [1], in test [2], in test [3], in test [4] and in test [5] was over 10 µM each time.

Turning to `CC(C)C1=C[C@]23CC[C@H]4[C@]5(C)CCC[C@@]4(C2=CC1=O)[C@@H](OC5)O3`, the IC50 in test [1], in test [2], in test [3], in test [4] and in test [5] was over 10 µM in each case.

With `CC(C)C1=C[C@]23O[C@H]2[C@H]2OC(=O)[C@@]4(CCCC(C)(C)[C@H]24)C3=CC1=O`, the IC50 is over 10 µM in test [1]; over 10 µM in test [2]; over 10 µM in test [3]; over 10 µM in test [4]; 1.7 µM in test [5].

For the compound `CC(C)c1cc2c(cc1O)[C@]13CCC[C@](C)(COC1=O)[C@@H]3CC2`, the IC50 in test [1], in test [2], in test [3], in test [4] and in test [5] was over 10 µM throughout.

With `CC(C)c1cc2c(cc1O)[C@@]13CCCC(C)(C)[C@@H]1[C@H](OC3=O)[C@@H]2O`, the IC50 in test [1] was over 10 µM; in test [2], 6 µM; in test [3] it was over 10 µM; in test [4], over 10 µM; in test [5], over 10 µM.

Consider `CC(C)c1cc2c(cc1O)[C@@]13CCCC(C)(C)[C@@H]1[C@H](OC3=O)[C@H]2O`, for which the IC50 in test [1], in test [2], in test [3], in test [4] and in test [5] was over 10 µM throughout.

As to `CC(C)c1cc2c(cc1O)[C@@]13CCCC(C)(C)[C@@H]1[C@H](OC3=O)C2=O`, the IC50 in test [1], in test [2], in test [3], in test [4] and in test [5] was over 10 µM in each case.

For the compound `CC(C)c1cc2c(cc1O)[C@]13CCC[C@]4(C)CO[C@@H]1O[C@H]2C[C@@H]43`, the IC50 in test [1], in test [2], in test [3], in test [4] and in test [5] was over 10 µM each time. Besides, in test [6], the inhibition at 10 µM amounted to 59.7%.

As to `CC(C)c1cc2c(cc1O)[C@]13CCC[C@](C)(CO[C@H]1O)[C@@H]3CC2`, the IC50 in test [1], in test [2], in test [3], in test [4] and in test [5] was over 10 µM each time.

Consider `CC(C)c1cc2c(cc1O)[C@]13CCC[C@](C)(CO[C@@H]1O)[C@@H]3CC2`, for which the IC50 in test [1], in test [2], in test [3], in test [4] and in test [5] was over 10 µM in each case.

For the compound `CO[C@@H]1OC[C@@]2(C)CCC[C@@]13c1cc(O)c(C(C)C)cc1CC[C@@H]23`, the IC50 in test [1], in test [2], in test [3], in test [4] and in test [5] was over 10 µM each time.

As to `CO[C@H]1OC[C@@]2(C)CCC[C@@]13c1cc(O)c(C(C)C)cc1CC[C@@H]23`, the IC50 in test [1], in test [2], in test [3], in test [4] and in test [5] was over 10 µM throughout.

Regarding `CCO[C@@H]1OC[C@@]2(C)CCC[C@@]13c1cc(O)c(C(C)C)cc1CC[C@@H]23`, the IC50 in test [1], in test [2], in test [3], in test [4] and in test [5] was over 10 µM throughout.

Consider `CC(C)c1cc2c(cc1O)[C@H]1CCCC(C)(C)[C@@H]1CC2=O`, for which the 50% inhibitory concentration (IC50) in test [1], in test [2], in test [3], in test [4] and in test [5] was over 10 µM throughout. In addition, in test [6], the inhibition at 10 µM stood at 56.1%.

On to `CC(C)c1cc2c(cc1O)[C@@]1(O)CCC[C@](C)(CO)[C@@H]1CC2=O`, for which the IC50 in test [1], in test [2], in test [3], in test [4] and in test [5] was over 10 µM throughout.

`CC(C)c1cc2c(cc1O)C1=C(CC2)C(C)(C)CC[C@H]1O`: the IC50 in test [1], in test [2], in test [3], in test [4] and in test [5] was over 10 µM throughout.

As to `CC(C)c1cc2ccc3c(c2cc1O)C(=O)CCC3(C)C`, the IC50 in test [1], in test [2], in test [3], in test [4] and in test [5] was over 10 µM each time.

In the case of `CC(C)c1cc2c(cc1O)C1=CC(=O)CC(C)(C)[C@@H]1CC2`, the IC50 in test [1], in test [2], in test [3], in test [4] and in test [5] was over 10 µM each time.

As for `CCO[C@@H]1C[C@@H]2C(=CC(=O)CC2(C)C)c2cc(O)c(C(C)C)cc21`, the IC50 in test [1], in test [2], in test [3], in test [4] and in test [5] was over 10 µM in each case.

With `CC(C)c1cc2c(cc1O)[C@@]1(C=O)CCCC(C)(C)[C@@H]1CC2`, the concentration for half-maximal inhibition (IC50) in test [1], in test [2], in test [3] and in test [4] was over 10 µM in each case. The inhibition at 10 µM in test [6] stood at 65.9%.

Regarding `CC(C)c1ccc2c(c1)C(=O)C[C@H]1C(C)(C)CCC[C@]21C`, the IC50 in test [1] was over 10 µM; in test [2] it was over 10 µM; in test [3], over 10 µM; in test [4], over 10 µM; in test [7] it was 4.8 µM; in test [5], over 10 µM.

In the case of `CC[C@@]1(O)C(=O)OCc2c1cc1n(c2=O)Cc2cc3ccccc3nc2-1` [CAMPTOTHECIN], the IC50 in test [2] was determined as 3.6 µM; in test [5], 0.2 µM.

The IC50 is the concentration that inhibits the measured activity by half. A higher IC50 goes with lower potency. As usually defined, the inhibition is the drop in the measured response relative to a control, in per cent.
